The text below walks through data of ChEMBL document CHEMBL1909046, “DrugMatrix in vitro pharmacology data”.

Each structure is given as a SMILES string.

Sequence of Beta-2 adrenergic receptor (P07550 whole entry): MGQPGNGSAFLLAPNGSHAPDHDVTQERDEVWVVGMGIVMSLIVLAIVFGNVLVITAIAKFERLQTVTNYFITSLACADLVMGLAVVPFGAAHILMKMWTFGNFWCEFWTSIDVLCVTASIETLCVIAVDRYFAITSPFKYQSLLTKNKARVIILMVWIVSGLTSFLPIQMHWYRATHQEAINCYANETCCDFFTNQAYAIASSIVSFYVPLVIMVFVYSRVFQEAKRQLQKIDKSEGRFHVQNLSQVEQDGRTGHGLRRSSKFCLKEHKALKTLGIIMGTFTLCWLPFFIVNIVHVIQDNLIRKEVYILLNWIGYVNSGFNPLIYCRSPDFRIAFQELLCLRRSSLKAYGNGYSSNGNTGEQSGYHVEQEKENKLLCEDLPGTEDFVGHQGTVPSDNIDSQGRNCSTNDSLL
Sequence of Kappa-type opioid receptor (P41145 whole entry): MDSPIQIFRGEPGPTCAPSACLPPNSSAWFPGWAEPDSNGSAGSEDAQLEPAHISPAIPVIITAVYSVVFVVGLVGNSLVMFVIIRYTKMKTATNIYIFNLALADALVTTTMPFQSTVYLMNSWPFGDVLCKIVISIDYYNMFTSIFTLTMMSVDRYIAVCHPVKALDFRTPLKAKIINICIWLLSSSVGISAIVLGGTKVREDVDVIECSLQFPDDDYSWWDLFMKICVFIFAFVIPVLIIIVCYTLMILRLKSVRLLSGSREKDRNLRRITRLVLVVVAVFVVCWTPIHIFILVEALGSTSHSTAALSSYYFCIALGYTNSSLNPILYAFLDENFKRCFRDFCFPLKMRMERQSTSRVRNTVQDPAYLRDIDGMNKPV
Sequence of Cannabinoid receptor 1 (P21554 whole entry): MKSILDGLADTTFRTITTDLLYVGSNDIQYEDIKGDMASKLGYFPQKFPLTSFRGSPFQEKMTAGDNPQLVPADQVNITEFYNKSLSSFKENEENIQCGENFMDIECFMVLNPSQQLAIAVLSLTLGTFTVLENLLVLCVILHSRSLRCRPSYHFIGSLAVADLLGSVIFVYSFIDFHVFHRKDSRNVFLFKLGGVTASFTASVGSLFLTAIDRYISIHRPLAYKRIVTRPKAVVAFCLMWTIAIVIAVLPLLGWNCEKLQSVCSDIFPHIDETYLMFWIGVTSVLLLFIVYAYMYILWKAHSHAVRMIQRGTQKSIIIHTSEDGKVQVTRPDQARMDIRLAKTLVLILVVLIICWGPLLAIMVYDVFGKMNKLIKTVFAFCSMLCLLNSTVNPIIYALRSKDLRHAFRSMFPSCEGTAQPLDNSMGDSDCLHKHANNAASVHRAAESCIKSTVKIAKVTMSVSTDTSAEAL

Tested on in one data set: not listed separately
The data set is described as follows: DRUGMATRIX: Phosphodiesterase PDE3 enzyme inhibition (substrate: [3H]cAMP + cAMP). It is filed as tissue-based, Homo sapiens. The note with it: platelet; Not Active = under 50% inhibition at 10 µM.
Regarding `CC1=Nc2ccc(Cl)cc2S(=O)(=O)N1` [DIAZOXIDE], the IC50 entry is “Not Active” and the Ki entry is recorded as “Not Active”.
As for `CC(C)(Oc1ccc(CCNC(=O)c2ccc(Cl)cc2)cc1)C(=O)O` [BEZAFIBRATE], the IC50 result is “Not Active” and the Ki entry is listed as “Not Active”.
Turning to `Oc1cccc2cccnc12` [OXYQUINOLINE], the IC50 entry is “Not Active” and the Ki result is “Not Active”.

A further data set concerns the target T1, Alpha-2C adrenergic receptor (Homo sapiens, UniProt P18825).
T1 sequence (P18825 whole entry): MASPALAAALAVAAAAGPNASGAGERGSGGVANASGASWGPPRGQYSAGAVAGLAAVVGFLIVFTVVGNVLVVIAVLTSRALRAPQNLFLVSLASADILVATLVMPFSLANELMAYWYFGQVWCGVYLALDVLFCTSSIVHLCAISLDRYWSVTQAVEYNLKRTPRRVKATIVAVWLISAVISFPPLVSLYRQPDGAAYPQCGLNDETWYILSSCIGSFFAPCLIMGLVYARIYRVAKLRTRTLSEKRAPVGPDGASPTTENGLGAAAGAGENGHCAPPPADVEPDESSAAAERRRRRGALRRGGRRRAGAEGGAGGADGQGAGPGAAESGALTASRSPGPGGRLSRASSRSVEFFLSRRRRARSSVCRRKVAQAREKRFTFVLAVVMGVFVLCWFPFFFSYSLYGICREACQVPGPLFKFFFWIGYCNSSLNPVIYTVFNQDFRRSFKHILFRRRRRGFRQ
Description: DRUGMATRIX: Adrenergic Alpha-2C radioligand binding (ligand: [3H] MK-912). The note with it: sf9. It is filed as cell membranes, Sf9, Membrane.
In the case of `CC1=Nc2ccc(Cl)cc2S(=O)(=O)N1` [DIAZOXIDE], the IC50 entry is “Not Active”.
For the compound `CC(C)(Oc1ccc(CCNC(=O)c2ccc(Cl)cc2)cc1)C(=O)O` [BEZAFIBRATE], the IC50 result is listed as “Not Active”.
In the case of `Oc1cccc2cccnc12` [OXYQUINOLINE], the IC50 entry is given as “Not Active”.

The next data set concerns the target Protein phosphatase 3 catalytic subunit alpha (Homo sapiens, UniProt Q08209). Also on record: species or system Escherichia coli.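 Also: inhibition of calcineurin (PP2B) enzyme activity, measured with DiFMUP as the substrate; in other assays of this panel Not Active means under 50% inhibition at 10 µM.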
Conditions: not given
As for `CC1=Nc2ccc(Cl)cc2S(=O)(=O)N1` [DIAZOXIDE], the IC50 entry is recorded as “Not Active”.
As for `CC(C)(Oc1ccc(CCNC(=O)c2ccc(Cl)cc2)cc1)C(=O)O` [BEZAFIBRATE], the IC50 result is recorded as “Not Active”.
Same read-out and setting: to `Oc1cccc2cccnc12` [OXYQUINOLINE] belongs “Not Active”.

The target of the next data set is T2, 5-hydroxytryptamine receptor 1A (Rattus norvegicus, UniProt P19327). Also: in other assays of this panel Not Active means under 50% inhibition at 10 µM.
T2 sequence (P19327 whole entry): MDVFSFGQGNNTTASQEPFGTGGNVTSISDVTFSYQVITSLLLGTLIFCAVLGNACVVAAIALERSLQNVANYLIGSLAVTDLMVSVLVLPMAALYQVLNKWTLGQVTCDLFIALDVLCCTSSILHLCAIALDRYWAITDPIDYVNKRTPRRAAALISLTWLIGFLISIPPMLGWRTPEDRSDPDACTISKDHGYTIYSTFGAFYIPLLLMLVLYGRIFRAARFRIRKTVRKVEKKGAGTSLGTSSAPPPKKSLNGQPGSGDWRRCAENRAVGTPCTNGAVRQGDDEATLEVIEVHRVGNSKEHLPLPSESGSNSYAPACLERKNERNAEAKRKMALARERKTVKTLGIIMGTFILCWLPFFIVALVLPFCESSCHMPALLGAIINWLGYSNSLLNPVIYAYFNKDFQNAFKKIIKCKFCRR
It is filed as cell membranes, CHO-K1, Membrane. The note with it: cho-k1.
For the compound `CC1=Nc2ccc(Cl)cc2S(=O)(=O)N1` [DIAZOXIDE], the IC50 entry was “Not Active”.
As for `CC(C)(Oc1ccc(CCNC(=O)c2ccc(Cl)cc2)cc1)C(=O)O` [BEZAFIBRATE], the IC50 entry is “Not Active”.
Turning to `Oc1cccc2cccnc12` [OXYQUINOLINE], the IC50 result is given as “Not Active”.

Tested on in a further data set: not listed separately
Description: DRUGMATRIX: GABAA, Flunitrazepam, Central radioligand binding (ligand: [3H] Flunitrazepam). It is filed as cell membranes, Rattus norvegicus, Wistar, Brain, Membrane. The note with it: Not Active = under 50% inhibition at 10 µM.
For the compound `CC1=Nc2ccc(Cl)cc2S(=O)(=O)N1` [DIAZOXIDE], the IC50 entry is reported as “Not Active” and the Ki result is “Not Active”.
`CC(C)(Oc1ccc(CCNC(=O)c2ccc(Cl)cc2)cc1)C(=O)O` [BEZAFIBRATE]: the IC50 entry is “Not Active” and the Ki entry is on record as “Not Active”.
Regarding `Oc1cccc2cccnc12` [OXYQUINOLINE], the IC50 entry was “Not Active” and the Ki result is on record as “Not Active”.

The target of a further data set is Cytochrome P450 2C9 (Homo sapiens, UniProt P11712). The note with it: bti-tn-5b1-4. Also: in other assays of this panel Not Active means under 50% inhibition at 10 µM.
Sequence of Cytochrome P450 2C9 (P11712 whole entry): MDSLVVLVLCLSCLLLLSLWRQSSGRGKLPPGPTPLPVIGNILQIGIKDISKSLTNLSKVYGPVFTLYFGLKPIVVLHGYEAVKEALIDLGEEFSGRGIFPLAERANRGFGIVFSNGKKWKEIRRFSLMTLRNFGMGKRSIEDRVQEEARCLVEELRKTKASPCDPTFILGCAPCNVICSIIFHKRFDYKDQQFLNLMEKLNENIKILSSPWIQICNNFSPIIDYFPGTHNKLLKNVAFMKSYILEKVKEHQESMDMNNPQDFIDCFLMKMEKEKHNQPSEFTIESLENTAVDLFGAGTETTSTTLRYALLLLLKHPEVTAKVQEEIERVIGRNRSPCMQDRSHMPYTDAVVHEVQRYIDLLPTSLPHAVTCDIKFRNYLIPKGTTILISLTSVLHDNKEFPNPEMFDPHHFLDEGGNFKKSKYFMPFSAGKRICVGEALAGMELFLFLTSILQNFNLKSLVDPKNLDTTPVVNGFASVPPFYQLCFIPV
Take `CC1=Nc2ccc(Cl)cc2S(=O)(=O)N1` [DIAZOXIDE]: the IC50 result was “Not Active” and the Ki result is “Not Active”.
As to `CC(C)(Oc1ccc(CCNC(=O)c2ccc(Cl)cc2)cc1)C(=O)O` [BEZAFIBRATE], the IC50 result is on record as “Not Active” and the Ki result is “Not Active”.

The next data set has as its target Beta-2 adrenergic receptor (Homo sapiens, UniProt P07550). The data set is described as follows: DRUGMATRIX: Adrenergic beta2 radioligand binding (ligand: [3H] CGP-12177). It is filed as cell membranes, Membrane. The note with it: cho; Not Active = under 50% inhibition at 10 µM.
Take `CC1=Nc2ccc(Cl)cc2S(=O)(=O)N1` [DIAZOXIDE]: the IC50 result was “Not Active”.
On the same count and under the same terms, the result for `CC(C)(Oc1ccc(CCNC(=O)c2ccc(Cl)cc2)cc1)C(=O)O` [BEZAFIBRATE] reads “Not Active”; that for `Oc1cccc2cccnc12` [OXYQUINOLINE], “Not Active”.

For a further data set, the target named is Sodium-dependent noradrenaline transporter (Homo sapiens, UniProt P23975). The data set is described as follows: DRUGMATRIX: Norepinephrine Transporter radioligand binding (ligand: [125I] RTI-55). The note with it: mdck; Not Active = under 50% inhibition at 10 µM. It is filed as cell membranes, MDCK, Membrane.
Sequence of Sodium-dependent noradrenaline transporter (P23975 whole entry): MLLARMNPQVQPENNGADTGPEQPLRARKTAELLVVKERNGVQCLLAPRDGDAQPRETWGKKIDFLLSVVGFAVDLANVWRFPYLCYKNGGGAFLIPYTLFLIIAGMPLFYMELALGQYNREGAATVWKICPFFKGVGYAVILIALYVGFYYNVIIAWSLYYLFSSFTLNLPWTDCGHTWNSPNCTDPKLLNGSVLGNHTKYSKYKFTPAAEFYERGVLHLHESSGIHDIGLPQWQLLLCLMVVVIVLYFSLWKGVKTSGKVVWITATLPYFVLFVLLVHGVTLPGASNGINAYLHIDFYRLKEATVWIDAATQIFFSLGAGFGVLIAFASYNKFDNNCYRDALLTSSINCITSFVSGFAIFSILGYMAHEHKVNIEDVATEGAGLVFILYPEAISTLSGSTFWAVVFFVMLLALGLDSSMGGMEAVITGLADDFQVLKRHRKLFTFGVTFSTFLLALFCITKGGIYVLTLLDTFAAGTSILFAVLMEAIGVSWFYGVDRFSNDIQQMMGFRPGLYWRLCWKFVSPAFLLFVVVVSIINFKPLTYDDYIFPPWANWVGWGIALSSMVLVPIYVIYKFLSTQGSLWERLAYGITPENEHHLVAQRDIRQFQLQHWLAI
Consider `CC1=Nc2ccc(Cl)cc2S(=O)(=O)N1` [DIAZOXIDE], for which the IC50 entry is given as “Not Active”.
Same read-out and setting: the result for `CC(C)(Oc1ccc(CCNC(=O)c2ccc(Cl)cc2)cc1)C(=O)O` [BEZAFIBRATE] reads “Not Active”; that for `Oc1cccc2cccnc12` [OXYQUINOLINE], “Not Active”.

Tested on in another data set: not listed separately
Description: DRUGMATRIX: Atrial Natriuretic Factor (ANF) radioligand binding (ligand: [125I] ANF (rat)). It is filed as cell membranes, Cavia porcellus, Dunkin-Hartley, Adrenal gland, Membrane. The conditions noted are these: Not Active = under 50% inhibition at 10 µM.
With `CC1=Nc2ccc(Cl)cc2S(=O)(=O)N1` [DIAZOXIDE], the IC50 entry was “Not Active” and the Ki result is “Not Active”.
For `CC(C)(Oc1ccc(CCNC(=O)c2ccc(Cl)cc2)cc1)C(=O)O` [BEZAFIBRATE], the IC50 result is “Not Active” and the Ki result was “Not Active”.
Regarding `Oc1cccc2cccnc12` [OXYQUINOLINE], the IC50 entry is recorded as “Not Active” and the Ki result is on record as “Not Active”.

The next data set deals with T3, Endothelin-1 receptor (Homo sapiens, UniProt P25101).
T3 sequence (P25101 whole entry): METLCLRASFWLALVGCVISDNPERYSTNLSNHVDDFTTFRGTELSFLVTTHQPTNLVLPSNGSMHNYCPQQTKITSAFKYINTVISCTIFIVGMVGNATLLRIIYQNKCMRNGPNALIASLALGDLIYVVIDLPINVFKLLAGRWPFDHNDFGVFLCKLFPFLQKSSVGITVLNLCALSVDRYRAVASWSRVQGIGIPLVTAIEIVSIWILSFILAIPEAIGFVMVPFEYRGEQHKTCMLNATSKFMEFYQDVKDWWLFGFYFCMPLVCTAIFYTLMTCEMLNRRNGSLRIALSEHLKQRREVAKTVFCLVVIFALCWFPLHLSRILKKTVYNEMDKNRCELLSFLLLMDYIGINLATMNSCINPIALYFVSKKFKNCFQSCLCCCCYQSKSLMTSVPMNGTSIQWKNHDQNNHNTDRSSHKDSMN
It is filed as cell membranes, Membrane. The conditions noted are these: cho-k1.
As to `CC1=Nc2ccc(Cl)cc2S(=O)(=O)N1` [DIAZOXIDE], the IC50 result is “Not Active”.
Same read-out and setting: to `CC(C)(Oc1ccc(CCNC(=O)c2ccc(Cl)cc2)cc1)C(=O)O` [BEZAFIBRATE] belongs “Not Active”; to `Oc1cccc2cccnc12` [OXYQUINOLINE], “Not Active”.

A further data set addresses Kappa-type opioid receptor (Homo sapiens, UniProt P41145). The data set is described as follows: DRUGMATRIX: Opiate kappa (OP2, KOP) radioligand binding (ligand: [3H] Diprenorphine). It is filed as cell membranes, HEK293, Membrane. The note with it: hek293; Not Active = under 50% inhibition at 10 µM.
As for `CC1=Nc2ccc(Cl)cc2S(=O)(=O)N1` [DIAZOXIDE], the IC50 result was “Not Active”.
With `CC(C)(Oc1ccc(CCNC(=O)c2ccc(Cl)cc2)cc1)C(=O)O` [BEZAFIBRATE], the IC50 entry is given as “Not Active”.
Same read-out and setting: to `Oc1cccc2cccnc12` [OXYQUINOLINE] belongs “Not Active”.

Tested on in a further data set: not listed separately
Description: DRUGMATRIX: Calcium Channel Type L, Dihydropyridine radioligand binding (ligand: [3H] Nitrendipine). It is filed as cell membranes, Rattus norvegicus, Wistar, Cerebral cortex, Membrane. The conditions noted are these: Not Active = under 50% inhibition at 10 µM.
On to `CC1=Nc2ccc(Cl)cc2S(=O)(=O)N1` [DIAZOXIDE], for which the IC50 entry is reported as “Not Active” and the Ki entry is “Not Active”.
Regarding `CC(C)(Oc1ccc(CCNC(=O)c2ccc(Cl)cc2)cc1)C(=O)O` [BEZAFIBRATE], the IC50 result is recorded as “Not Active” and the Ki result was “Not Active”.
On to `Oc1cccc2cccnc12` [OXYQUINOLINE], for which the IC50 result is given as “Not Active” and the Ki result was “Not Active”.

Another data set concerns the target T4, Muscarinic acetylcholine receptor M2 (Homo sapiens, UniProt P08172). Also: in other assays of this panel Not Active means under 50% inhibition at 10 µM.
T4 sequence (P08172 whole entry): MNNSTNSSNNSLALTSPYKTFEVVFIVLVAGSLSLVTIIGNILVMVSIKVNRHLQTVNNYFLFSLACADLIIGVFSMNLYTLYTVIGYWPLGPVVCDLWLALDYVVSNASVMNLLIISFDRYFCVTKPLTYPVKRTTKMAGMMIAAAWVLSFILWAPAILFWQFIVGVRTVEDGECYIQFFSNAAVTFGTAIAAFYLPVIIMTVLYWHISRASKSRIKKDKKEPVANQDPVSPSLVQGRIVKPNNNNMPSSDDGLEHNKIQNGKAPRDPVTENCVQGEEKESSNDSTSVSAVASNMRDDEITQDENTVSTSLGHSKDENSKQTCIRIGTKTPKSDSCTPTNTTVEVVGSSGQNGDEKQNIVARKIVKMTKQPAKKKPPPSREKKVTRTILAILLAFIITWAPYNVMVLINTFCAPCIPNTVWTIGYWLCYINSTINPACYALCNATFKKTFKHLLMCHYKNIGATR
It is filed as cell membranes, CHO-K1, Membrane. The conditions noted are these: cho-k1.
For `CC1=Nc2ccc(Cl)cc2S(=O)(=O)N1` [DIAZOXIDE], the IC50 entry was “Not Active”.
`CC(C)(Oc1ccc(CCNC(=O)c2ccc(Cl)cc2)cc1)C(=O)O` [BEZAFIBRATE]: the IC50 result is recorded as “Not Active”.
The same measure, in the same setting: to `Oc1cccc2cccnc12` [OXYQUINOLINE] belongs “Not Active”.

A further data set addresses Cannabinoid receptor 1 (Homo sapiens, UniProt P21554). It is filed as cell membranes, Membrane. The note with it: chem-1.
As for `CC1=Nc2ccc(Cl)cc2S(=O)(=O)N1` [DIAZOXIDE], the IC50 result was “Not Active”.
Take `CC(C)(Oc1ccc(CCNC(=O)c2ccc(Cl)cc2)cc1)C(=O)O` [BEZAFIBRATE]: the IC50 result is “Not Active”.
Still for that read-out and setting: the result for `Oc1cccc2cccnc12` [OXYQUINOLINE] reads “Not Active”.
